Source: ChEMBL document CHEMBL1150885, “Antibacterial activity of lonchocarpol A” (J Nat Prod, 1998)
Converted amounts (≈) assume the structure as drawn.

Experiments:
[1] = test system: Mycolicibacterium smegmatis; test: Antibacterial activity against Mycobacterium smegmatis after 24 hrs by broth microtiter susceptibility assay in presence of mouse plasma; assay type: functional
Priestia megaterium [2] = test: Inhibition of protein synthesis in Bacillus megaterium Mb 410 assessed as L-[4,5-3H]leucine incorporation by scintillation counting; assay type: functional, organism-based
[3] = test system: Mycolicibacterium smegmatis; test: Antibacterial activity against Mycobacterium smegmatis after 24 hrs by broth microtiter susceptibility assay in absence of mouse plasma; assay type: functional
Priestia megaterium [4] = test: Antibacterial activity against Bacillus megaterium Mb 410 after 24 hrs by broth microtiter susceptibility assay in absence of mouse plasma; assay type: functional
Enterococcus faecium [5] = test: Antibacterial activity against vancomycin-resistant Enterococcus faecium after 24 hrs by broth microtiter susceptibility assay in presence of mouse plasma; assay type: functional
Staphylococcus aureus [6] = test: Antibacterial activity against methicillin-resistant Staphylococcus aureus after 24 hrs by broth microtiter susceptibility assay in absence of mouse plasma; assay type: functional
Priestia megaterium [7] = test: Inhibition of RNA synthesis in Bacillus megaterium Mb 410 assessed as [5,6-3H]uracil incorporation by scintillation counting; assay type: functional, organism-based
L1210 [8] = test: Cytotoxicity against mouse L1210 cells after 24 hrs by trypan blue assay; assay type: functional, cell-based; settings: L1210, 24 h
Priestia megaterium [9] = test: Inhibition of cell wall synthesis in Bacillus megaterium Mb 410 assessed as [2,6-3H]diaminopimelic incorporation by scintillation counting; assay type: functional, organism-based
Priestia megaterium [10] = test: Inhibition of DNA synthesis in Bacillus megaterium Mb 410 assessed as [6-3H]thymidine incorporation by scintillation counting; assay type: functional, organism-based
Staphylococcus aureus [11] = test: Antibacterial activity against methicillin-resistant Staphylococcus aureus after 24 hrs by broth microtiter susceptibility assay in presence of mouse plasma; assay type: functional
[12] = Toxicity in defibrinated sheep RBC assessed as minimum lytic concentration causing hemolysis after 2 hrs by liquid microtiter assay; assay type: cell-based, Ovis aries; settings: erythrocyte
Enterococcus faecium [13] = test: Antibacterial activity against vancomycin-resistant Enterococcus faecium after 24 hrs by broth microtiter susceptibility assay in absence of mouse plasma; assay type: functional
L1210 [14] = test: Cytotoxicity against mouse L1210 cells by MTT assay; assay type: functional, cell-based

## CC(C)=CCc1c(O)c(CC=C(C)C)c2c(c1O)C(=O)C[C@@H](c1ccc(O)cc1)O2 [LONCHOCARPOL A]
[1]
  MIC: ≥ 100 mg/L
Priestia megaterium [2]
  IC50: 2.5 mg/L (≈ 6.12 µM)
[3]
  MIC: > 100 mg/L
Priestia megaterium [4]
  MIC: 1 mg/L (≈ 2.45 µM)
Enterococcus faecium [5]
  MIC: ≥ 100 mg/L
Staphylococcus aureus [6]
  MIC: 0.78 mg/L (≈ 1.91 µM)
Priestia megaterium [7]
  IC50: 1.9 mg/L (≈ 4.65 µM)
L1210 [8]
  IC50: 10 mg/L (≈ 24.5 µM)
Priestia megaterium [9]
  IC50: 1.9 mg/L (≈ 4.65 µM)
Priestia megaterium [10]
  IC50: 3.9 mg/L (≈ 9.55 µM)
Staphylococcus aureus [11]
  MIC: ≥ 100 mg/L
[12]
  Activity: >= 100 ug ml-1
Enterococcus faecium [13]
  MIC: 0.78 mg/L (≈ 1.91 µM)
L1210 [14]
  IC50: > 10 mg/L
